Reference: publication PMC10650108 (Molecules, 2023)
“Also recorded” adds a separate entry of the source. Blank lines part the entries; values can stand above or below the sequence they belong to. Ends that are not written are not given here.

Legend:
[1] = In vitro metabolic incubation with human liver microsomes, UHPLC-HRMS metabolite profiling; format: in vitro ADME; conditions: 37 °C, 2 h
Experimental: (§1) Mixed-gender human liver microsomes (10-Donor Pool, total protein concentration of 20 mg/mL) and mixed-gender human skin S9 (3-Donor Pool, total protein concentration of 1.89 mg/mL) were purchased from BioreclamationIVT (Westbury, NY, USA). Phosphate buffered saline (PBS, pH 7.2~7.4) was obtained from Sangon Biotech Co., Ltd. (Shanghai, China). BPC-157 (HPLC purity > 99%) and (Deamino-cysl, val4, D-arg8)-Vasopressin (DCVDV, internal standard, ISTD) were purchased from Alta Scientific Co., Ltd. (Tianjin, China). ^13C6,^15N2-BPC-157 (labeled BPC-157, HPLC purity > 98%) was purchased from Synpeptide Co., Ltd. (Nanjing, China). BPC-157 (2–15) free acid, BPC-157 (1–13) free acid, BPC-157 (2–13) free acid, BPC-157 (1–12) free acid, BPC-157 (3–15) free acid, BPC-157 (1–8) free acid, and BPC-157 (2–8) free acid were synthesized by Alta Scientific Co., Ltd. (Tianjin, China). MgCl2 was from Beyotime Biotechnology (Shanghai, China). Nicotinamide adenine dinucleotide phosphate (NADPH) was purchased from Vetec (Shanghai, China). Acetonitrile (ACN), methanol (MeOH), and formic acid (FA) were of LC-MS grade and were obtained from Thermo Fisher Scientific (San Jose, CA, USA). Milli-Q purified water (MerckMillipore, Vimodrone, Milan, Italy) was used for sample preparation, reference material dilution, and LC mobile phase preparation. […]

[2] = In vitro metabolic incubation with human skin S9, UHPLC-HRMS metabolite profiling; format: in vitro ADME; conditions: human skin S9 0.189 mg/mL, 37 °C, 2 h
Experimental: as §1

[3] = mixed-gender human liver microsomes (10-Donor Pool) in PBS with MgCl2 and NADPH; conditions: 37 °C, up to 2 h
[4] = in vitro plasma metabolism; conditions: cited from earlier work
[5] = mixed-gender human skin S9 (3-Donor Pool) in PBS; conditions: 37 °C, up to 2 h

Sequence: EPPPGKPADDAGLV [BPC-157 (2–15) free acid (M8), BPC-157 (2–15) free acid]
Relative response of metabolites (relative abundance) ([1]; both incubation systems (human liver microsomes and human skin S9), relative to the most abundant metabolite M8): most abundant metabolite in both incubation systems

Sequence: GKPADDAGLV [BPC-157 (6–15) free acid (M7), BPC-157 (6–15) free acid]
Detection of metabolite in the human skin S9 incubation system (in words) [2]: only detected in the human skin S9 incubation system

Sequence: EPPPGKPADDAGL [BPC-157 (2–14) free acid (M5), BPC-157 (2–14) free acid]
Detection of metabolite in the human skin S9 incubation system (in words) [2]: only detected in the human skin S9 incubation system

Sequence: EPPPGKPADDAG [BPC-157 (2–13) free acid (M3), BPC-157 (2–13) free acid]
Detection of metabolite in the human liver microsome incubation system (in words) ([1]; human liver microsomes 1 mg/mL, NADPH, UHPLC-HRMS): only detected in the human liver microsome incubation system

fragment found [3]: labeled M9
Sequence: GEPPPGKPADDAGLV [labeled BPC-157]

cleaved bond [5]: glycine1-E2, major
cleaved bond [3]: glycine1-E2, major
Sequence: GEPPPGKPADDAGLV [BPC-157]
fragment found [4]: BPC-157 (2–15) free acid (M8), major; also recorded: BPC-157 (2–13) free acid
fragment found [5]: BPC-157 (1–14) free acid (M6), GEPPPGKPADDAGL; also recorded: BPC-157 (2–8) free acid (M1), EPPPGKP, major; also recorded: BPC-157 (1–8) free acid (M2), GEPPPGKP, major; also recorded: BPC-157 (1–13) free acid (M4), GEPPPGKPADDAG, major
fragment found [3]: BPC-157 (1–14) free acid (M6), GEPPPGKPADDAGL; also recorded: BPC-157 (2–8) free acid (M1), EPPPGKP, major; also recorded: BPC-157 (1–8) free acid (M2), GEPPPGKP, major; also recorded: BPC-157 (1–13) free acid (M4), GEPPPGKPADDAG, major
